This note sets out measurements from paper PMC9413440, “An Iterative Approach Guides Discovery of the FabI Inhibitor Fabimycin, a Late-Stage Antibiotic Candidate with In Vivo Efficacy against Drug-Resistant Gram-Negative Infections” (ACS Central Science, 2022).

As usually defined, the MIC is the lowest concentration that inhibits growth of the organism. Lower therefore signals inhibition by little substance.

Test [1] deals with A. baumannii AR-0033. Kind of test: MIC, broth microdilution (CLSI). The note with it: Acinetobacter baumannii, AR0033; A. baumannii AR-0033 clinical isolate; † = dose-independent trailing growth. Type of test: cell-based. How it is done: (§1) II. Materials and Methods for Biological Experiments
(§2) S. aureus ATCC 29213 and E. coli MG1655 were obtained from the American Type Culture Collection (ATCC). E. coli BW25113 and E. coli JW5503 were obtained from the Keio Collection. AR-bank strains were obtained from the Centers for Disease Control and Prevention and FDA Antibiotic Resistance Isolate Bank.
(§3) Antimicrobial susceptibility tests
(§4) Susceptibility testing was performed in biological triplicate, unless noted otherwise, using the micro-dilution broth method as outlined by the Clinical and Laboratory Standards Institute. Bacteria were cultured with cation-adjusted Mueller Hinton broth (Sigma Aldrich, catalogue number: 90922). […]
(§5) NH3: m/z 391.2 → 171.0. Fabimycin: m/z 405.3 → 145.3. Power analysis was not used to determine the number of replicates. Error bars represent the standard error of the mean of three biological replicates. All compounds evaluated in biological assays were ≥95% pure.
On the technique in general: In broth dilution the organism is exposed to a series of concentrations in liquid medium.

The test system of test [2] is A. baumannii AR-0273. Kind of test: MIC, broth microdilution (CLSI). The note with it: Acinetobacter baumannii, AR0273; A. baumannii AR-0273 clinical isolate. The class given is cell-based. Here is the method: as §1, §2, §3, §4, §5
Test [3] relates to A. baumannii AR-0299. Kind of test: MIC, broth microdilution (CLSI). Type of test: cell-based. The note with it: Acinetobacter baumannii, AR0299; A. baumannii AR-0299 clinical isolate; † = dose-independent trailing growth. Here is the method:
as §1, §2, §3, §4, §5

Test [4] has as its system E. coli AR-0048. Kind of test: MIC, broth microdilution (CLSI). The note with it: Escherichia coli, AR0048; E. coli AR-0048 clinical isolate. The class given is cell-based. How it is done:
as §1, §2, §3, §4, §5

Test [5] deals with E. coli AR-0085. In words: MIC, broth microdilution (CLSI). The class given is cell-based. The note with it: Escherichia coli, AR0085; E. coli AR-0085 clinical isolate. How it is done: as §1, §2, §3, §4, §5
Test [6] has as its system E. coli MG1655. In words: MIC, broth microdilution (CLSI). The class given is cell-based. The note with it: Escherichia coli. How it is done:
as §1, §2, §3, §4, §5

The subject of test [7] is K. pneumoniae AR-0066. In words: MIC, broth microdilution (CLSI). The class given is cell-based. As to conditions: Klebsiella pneumoniae, AR0066; K. pneumoniae AR-0066 clinical isolate. How it is done: as §1, §2, §3, §4, §5
Test [8] deals with K. pneumoniae AR-0560. Kind of test: MIC, broth microdilution (CLSI). As to conditions: Klebsiella pneumoniae, AR0560; K. pneumoniae AR-0560 clinical isolate. Type of test: cell-based. Here is the method:
as §1, §2, §3, §4, §5

Test [9] deals with K. pneumoniae BAA-2472. Kind of test: MIC, broth microdilution (CLSI). The class given is cell-based. The note with it: Klebsiella pneumoniae, BAA2472. How it is done: as §1, §2, §3, §4, §5
Test [10] deals with S. aureus ATCC 29213. Kind of test: MIC, broth microdilution (CLSI). Type of test: cell-based. As to conditions: Staphylococcus aureus, ATCC29213; S. aureus 29213. Here is the method:
as §1, §2, §3, §4, §5

For test [11], the system named is E. coli ΔtolC (JW5503). Kind of test: MIC, broth microdilution (CLSI). Type of test: cell-based, Escherichia coli. How it is done:
as §1, §2, §3, §4, §5

In test [12] the test system is A. baumannii AR-0313. In words: MIC, broth microdilution (CLSI). The class given is cell-based. The note with it: Acinetobacter baumannii, AR0313; A. baumannii AR-0313 clinical isolate; † = dose-independent trailing growth. How it is done: as §1, §2, §3, §4
(§6) Error bars represent the standard error of the mean of three biological replicates. All compounds evaluated in biological assays were ≥95% pure.

For test [13], the system named is K. pneumoniae AR-0113. In words: MIC, broth microdilution (CLSI). Type of test: cell-based. As to conditions: Klebsiella pneumoniae, AR0113; K. pneumoniae AR-0113 clinical isolate. Here is the method:
as §1, §2, §3, §4, §6

Test [14] has as its target A. baumannii FabI (Acinetobacter baumannii, UniProt D0CAD5). In words: In vitro FabI enzymatic inhibition assay. The note with it: AbFabI; Morrison's quadratic fit; 5 nM enzyme; read-out: Ki app. The class given is biochemical. How it is done:
(§7) supplemented with 100 µg/mL ampicillin at 37°C until OD600 reached 0.6-0.7. The cells were induced with 1mM IPTG and incubated for 20 hours at 18°C and spun down at 8000 rpm for 15 minutes. Cell pellet was resuspended in the lysis buffer (50 mM Tris-HCl pH 8.0, 500 mM Na Cl, 20 mM imidazole, 10% glycerol, 0.5 mM TCEP, protease inhibitor and Lysonase) and passed through microfluidizer followed by centrifugation and filtration to remove cell debris. The clarified lysate was supplemented with 20 mM imidazole and passed over a HisTrap column (Cytiva) pre-equilibrated with the wash buffer (50 mM Tris-HCl pH 8.0, 500 mM NaCl, 20 mM imidazole, 10% glycerol, 0.5 mM TCEP). The column was washed with the wash buffer and eluted over a 20-500 mM imidazole gradient. The appropriate fractions were pooled, and the histidine tag was removed by TEV cleavage. The protein mixture was passed over a HisTrap column to separate the cleaved protein from the uncleaved ones. The cleaved protein was pooled and passed over an S75 size exclusion column (GE LifeSciences) pre-equilibrated with 50 mM Tris-HCl pH 8.0, 500 mM NaCl, 0.5 mM TCEP and 10% glycerol. Fractions containing pure protein were pooled, concentrated at 10 mg/mL and stored at -80°C. […]
(§8) In vitro FabI enzymatic inhibition assay
(§9) Recombinant E. coli and A. baummani FabI enzymes were used in a continuous NADH absorbance assay (20 µL in 384w format). Compounds and the Crotonyl-CoA substrate (Sigma–Aldrich 28007) were dispensed into a plate (GeinerBio-One 781101). The reaction was initiated by the addition of a reaction master mix solution containing enzyme and NADH (Sigma–Aldrich N8129) suspended in reaction buffer (50 mM HEPES pH 7.4, 150 mM NaCl, 1 mM EDTA, 0.01 mg/mL BSA, 0.01% Tween). Final concentrations were 5 nM enzyme, 150 μM Crotonyl-CoA, 380 μM NADH, 0.05% DMSO in 1x reaction buffer. After shaking for 5 seconds the reaction was monitored at NADH absorbance (340nm, 25°C) using a Molecular Devices SpectraMax M5 microplate reader. The linear portion of the progress curve was fit using plate-reader software. Percentage activity was calculated relative to DMSO only and no-substrate controls in each plate and the data were fit to Morrison’s quadratic using Graphpad Prism 9.3 to obtain apparent inhibition constant (Ki app) values. […]
(§10) 480 Real-Time PCR System as a function of a temperature ramp (25-95°C; 0.1°/s) and the Tm was calculated using the […]

The target in test [15] is T1, E. coli FabI (Escherichia coli, UniProt P0AEK4).
T1 construct: His(6) with TEV site (cleaved yes); made in house; host or cells: E. coli BL21(DE3)
T1 sequence (P0AEK4 whole entry): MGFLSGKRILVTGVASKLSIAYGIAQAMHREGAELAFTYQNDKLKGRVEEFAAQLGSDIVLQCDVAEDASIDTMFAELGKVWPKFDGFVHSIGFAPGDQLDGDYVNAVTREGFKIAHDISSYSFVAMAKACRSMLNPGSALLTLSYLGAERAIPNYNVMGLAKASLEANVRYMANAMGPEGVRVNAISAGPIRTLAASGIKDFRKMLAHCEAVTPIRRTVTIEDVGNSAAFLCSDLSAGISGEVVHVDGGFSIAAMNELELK
In words: In vitro FabI enzymatic inhibition assay. The class given is biochemical. The note with it: for Ki: EcFabI, Morrison's quadratic fit, 5 nM enzyme, read-out: Ki app. Here is the method:
as §7, §8, §9, §10

≈ marks a conversion by molar mass, not a printed value. Bounds are passed on as bounds.

Sequence of A. baumannii FabI (D0CAD5 entry or part of it): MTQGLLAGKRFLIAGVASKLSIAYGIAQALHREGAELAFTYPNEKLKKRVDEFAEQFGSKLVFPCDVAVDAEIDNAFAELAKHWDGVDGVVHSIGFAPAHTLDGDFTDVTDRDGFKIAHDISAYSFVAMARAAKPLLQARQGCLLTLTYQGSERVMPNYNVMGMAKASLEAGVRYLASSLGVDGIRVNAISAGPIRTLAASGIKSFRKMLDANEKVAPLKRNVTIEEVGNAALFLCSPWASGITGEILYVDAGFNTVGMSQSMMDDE

For `Cc1c(CN(C)C(=O)/C=C/c2cnc3c(c2)CC[C@@H](N)C(=O)N3)oc2ccccc12` [(R)-7], the MIC in test [1] was over 128 µg/mL; in test [2], over 128 µg/mL; in test [3], over 128 µg/mL; in [4], 128 µg/mL (≈ 316 µM); in test [5], 128 µg/mL (≈ 316 µM); in [6] it was 64 µg/mL (≈ 158 µM). Moreover, the MIC is over 128 µg/mL in [7]; over 128 µg/mL in [8]; over 128 µg/mL in test [9]; 0.125 µg/mL (≈ 0.309 µM) in [10]; 0.5 µg/mL (≈ 1.24 µM) in [11] (Escherichia coli); over 128 µg/mL in [12]. This compound also had an MIC in [13] of over 128 µg/mL. The Ki was determined as 109 ± 14 nM in [14] and 38 ± 4 nM in test [15].

In the case of `Cc1c(CN(C)C(=O)/C=C/c2cnc3c(c2)CCCC(=O)N3)oc2ccccc12` [compound 10], the minimum inhibitory concentration (MIC) amounted to 16 µg/mL (≈ 41.1 µM) in test [1]; 16 µg/mL (≈ 41.1 µM) in test [2]; 16 µg/mL (≈ 41.1 µM) in test [3]; 8 µg/mL (≈ 20.5 µM) in test [4]; 8 µg/mL (≈ 20.5 µM) in test [5]; 8 µg/mL (≈ 20.5 µM) in test [6]. For the same compound, the minimal inhibitory concentration (MIC) in [7] was 32 µg/mL (≈ 82.2 µM); in test [8] it was over 32 µg/mL; in test [9], 16 µg/mL (≈ 41.1 µM); in test [10], 0.002 µg/mL (≈ 0.00514 µM); in [11] (Escherichia coli) it was 0.031 µg/mL (≈ 0.0796 µM); in [12], 16 µg/mL (≈ 41.1 µM). The MIC in [13] was 32 µg/mL (≈ 82.2 µM). The Ki came to 487 ± 101 nM in test [14] and 131 ± 22 nM in test [15].

As to `Cc1c(CN(C)C(=O)/C=C/c2cnc3c(c2)CC[C@H](N)C(=O)N3)oc2ccccc12` [fabimycin], the MIC in test [1] is 4 µg/mL (≈ 9.89 µM); in test [2] it was 4 µg/mL (≈ 9.89 µM); in [3] it was 2 µg/mL (≈ 4.94 µM); in [4], 2 µg/mL (≈ 4.94 µM); in [5] it was 1 µg/mL (≈ 2.47 µM); in [6] it was 2 µg/mL (≈ 4.94 µM). The MIC is 4 µg/mL (≈ 9.89 µM) in test [7]; 4 µg/mL (≈ 9.89 µM) in test [8]; 4 µg/mL (≈ 9.89 µM) in test [9]; 0.004 µg/mL (≈ 0.00989 µM) in test [10]; 0.016 µg/mL (≈ 0.0396 µM) in test [11] (E. coli ΔtolC = JW5503, efflux-deficient); 4 µg/mL (≈ 9.89 µM) in [12]. Further, 4 µg/mL (≈ 9.89 µM) was the least that counted as inhibitory in test [13] (MIC). Also, the Ki in [14] stood at 17 ± 3 nM; in test [15], 8 ± 2 nM. For the same compound, in [15] (fabimycin relative to (R)-7), the “difference in potency between fabimycin and (R)-7 against purified E. coli FabI” value worked out at 4.75 fold.
